Reference: article PMC9127750, “Structure-based design of CDC42 effector interaction inhibitors for the treatment of cancer” (Cell reports, 2022)
Values joined by “and” are separate entries in the source; they are usually repeats but may differ in a detail not shown here. Identical values can stand only once.

Test system: WM3248 melanoma cells, 486 antibodies
Assay: Reverse phase protein arrays (RPPA);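 for CREB pS133.R.C RPPA level: ratio of treated to vehicle (0 µM) normalized linear protein signal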;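 for Cyclin.B1.R.V RPPA level: ratio of treated to vehicle (0 µM) normalized linear protein signal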;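 for Cyclin.E1.R.V RPPA level: ratio of treated to vehicle (0 µM) normalized linear protein signal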;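 for DDB.1.R.V RPPA level: ratio of treated to vehicle (0 µM) normalized linear protein signal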
Assay type: cell-based, Human
Conditions: 10 uM
Source text: Pellets were snap frozen in liquid nitrogen and shipped to MD Anderson Cancer Center core RPPA facility for RPPA analysis (Table S5). Three biological replicates for each sample were generated.
Nomenclatures on the RPPA heatmaps: name_of_antibody.species_of_antibody.status_of_antibody. V - antibody validated; C - validation of antibody in progress; Q - antibody nonspecific; E – under evaluation; antibodies raised in M - mouse, G - goat, R - rabbit, or T - rat.

## CN(C)c1cccc(Nc2cc(-c3ccccc3)nc(C3CCNCC3)n2)c1 [ARN22089, N1,N1-dimethyl-N3-(6-phenyl-2-(piperidin-4-yl)pyrimidin-4-yl)benzene-1,3-diamine]
replicates
  CENP.A.R.V RPPA level: 1.151 and 1.005 and 0.894
  CHD1L.R.V RPPA level: 1.053 and 0.975
  CIITA.R.C RPPA level: 0.943
  COG3.R.V RPPA level: 1.004 and 1.123 and 1.059
  CRABP1.R.C RPPA level: 1.020 and 1.132 and 0.998
  CRABP2.R.V RPPA level: 1.116 and 1.191 and 0.898
  CREB_pS133.R.C RPPA level: 1.215 and 1.129 and 1.046
  CSK.R.C RPPA level: 1.016 and 1.050
  Calnexin.R.V RPPA level: 1.054 and 1.062 and 1.021
  Caspase.3.cleaved.R.C RPPA level: 0.914 and 0.955 and 0.964
  Caspase.7.cleaved..R.C RPPA level: 0.854 and 1.203 and 0.935
  Caspase.8.M.Q RPPA level: 0.939 and 0.985 and 0.948
  Caspase.8.cleaved.R.C RPPA level: 1.012 and 1.005
  Caveolin.1.R.V RPPA level: 0.511 and 0.968 and 1.344
  Cdc6.R.V RPPA level: 1.149 and 0.959 and 0.806
  Cdc42.R.C RPPA level: 0.879 and 1.031 and 1.047
  Chk1.M.C RPPA level: 0.982
  Chk1_pS296.R.V RPPA level: 1.083 and 1.109 and 1.035
  Chk1_pS345.R.C RPPA level: 1.079 and 0.892
  Chk2.M.V RPPA level: 1.081 and 1.018 and 0.980
  Chk2_pT68.R.C RPPA level: 1.106 and 0.986
  Claudin.7.R.V RPPA level: 1.024 and 1.518
  Collagen.VI.R.V RPPA level: 1.360 and 0.732 and 0.984
  Complex.II.Subunit.M.V RPPA level: 0.942 and 1.064
  Connexin.43.R.C RPPA level: 1.028 and 1.053 and 1.013
  Coup.TFII.R.C RPPA level: 0.805 and 0.957 and 0.905
  Cox2.R.C RPPA level: 0.926
  Cox.IV.R.V RPPA level: 0.954 and 1.028 and 0.879
  Creb.R.C RPPA level: 0.985 and 0.987 and 0.986
  CtIP.R.V RPPA level: 0.811 and 0.959 and 1.049
  Cyclin.B1.R.V RPPA level: 1.215 and 0.558 and 1.046
  Cyclin.D1.R.C RPPA level: 1.058 and 1.030
  Cyclin.D3.M.V RPPA level: 1.147 and 1.027 and 0.999
  Cyclin.E1.R.V RPPA level: 1.052 and 1.061 and 0.904
  D.a.Tubulin.R.V RPPA level: 0.843 and 1.062 and 1.022
  DAPK1_pS308.M.C RPPA level: 1.219 and 0.875
  DAPK2.R.C RPPA level: 0.896 and 0.971
  DDB.1.R.V RPPA level: 0.816 and 0.798 and 0.956
  DDR1.R.V RPPA level: 1.205 and 0.959 and 0.921
  DDR1_pY513.R.C RPPA level: 1.134 and 1.079 and 0.941
  DJ1.R.V RPPA level: 0.977 and 1.030
  DM.Histone.H3.R.V RPPA level: 0.923 and 0.956 and 0.905
  DM.K9.Histone.H3.M.V RPPA level: 1.060 and 1.027
  DNA.Ligase.IV.R.C RPPA level: 0.876 and 1.063
  DNA_POLG.R.V RPPA level: 1.161 and 1.030 and 0.850
  c.Jun_pS73.R.V RPPA level: 0.892 and 1.231 and 0.915
  c.Kit.R.V RPPA level: 1.223 and 0.923 and 0.946
  c.Met_pY1234_Y1235.R.V RPPA level: 0.927 and 0.979
  c.Myc.R.C RPPA level: 0.990 and 1.949 and 1.062
  cGAS.R.V RPPA level: 1.123 and 1.204 and 1.015
  cdc2_pY15.R.C RPPA level: 1.056 and 0.933
  cdc25C.R.V RPPA level: 0.773 and 0.805 and 1.120
Single replicates
  RPPA MYH11.R.C: 1.100 and 1.584
  RPPA Myosin.IIa.R.C: 0.877 and 0.781 and 1.164
  RPPA Myosin.IIa_pS1943.R.V: 0.954 and 0.844 and 1.268
  RPPA Myt1.R.C: 0.886 and 0.984 and 1.096
  RPPA N.Cadherin.R.V: 1.097 and 1.063 and 1.030
  RPPA N.Ras.M.V: 0.953 and 0.958 and 1.062
  RPPA NAPSIN.A.R.C: 0.999 and 1.048
  RPPA NDRG1_pT346.R.V: 0.798 and 1.051 and 1.195
  RPPA NDUFB4.R.V: 1.112 and 1.008 and 0.987
  RPPA NRF2.R.C: 1.131 and 0.925 and 0.932
  RPPA Notch1.R.V: 1.065 and 1.124 and 1.005
  RPPA Notch1.cleaved.R.V: 0.792 and 0.886 and 1.098
  RPPA Notch3.R.C: 1.065 and 1.230 and 1.000
  RPPA Oct.4.R.C: 0.909
  RPPA P.Cadherin.R.C: 1.001 and 0.968
  RPPA PAI.1.M.V: 0.919 and 0.946
  RPPA PAICS.R.C: 0.926 and 0.836 and 0.997
  RPPA PAK1.R.V: 0.749 and 1.057 and 1.078
  RPPA PAK4.R.V: 1.101 and 1.108 and 0.979
  RPPA PAK_pS474_S602_S560.R.V: 1.125 and 1.130 and 1.000
  RPPA PAK_pT423_T402.R.C: 1.141 and 0.908
  RPPA PAR.R.C: 0.306 and 0.831 and 0.304
  RPPA PARG.R.C: 0.976 and 1.013 and 0.921
  RPPA PARP.R.V: 1.079 and 0.890 and 1.083
  RPPA PAX6.R.V: 0.992 and 1.020 and 0.997
  RPPA PAX8.R.C: 1.133 and 1.022 and 0.978
  RPPA PCNA.M.C: 0.928 and 1.013 and 1.020
  RPPA PD.1.R.V: 1.076 and 1.064 and 1.035
  RPPA PD.L1.R.C: 0.845 and 1.047
  RPPA PDH.M.V: 1.032 and 1.047 and 1.014
